In the supplement of paper PMC11061612:

How the values were obtained:
CAS-1 (Glioblastoma) = test: Bliss excess, mean over the matrix (fraction); higher = more synergy
How it was run: (§1)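 Cell lines in DMEM/F12 or RPMI with 10% FBS were plated in 1536-well plates, held 24 hours at 37°C, 5% CO2, then given two-drug dose matrices for 72 hours (DMSO typically 0.2%). Viability was read by CellTiter-Glo 2.0 luminescence and scaled as inhibition from 0 (vehicle wells) to 1 (blank wells). Combination Emax is the second-highest inhibition in the matrix; Bliss excess is observed combination effect minus expected EA + EB − EA·EB, EA and EB being single-agent effects.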

[1] = test system: COR-L311 (Small Cell Lung Carcinoma); test: as above
How it was run: as §1

[2] = test system: NCI-H1650 (Lung Adenocarcinoma); test: as above
How it was run: as §1

[3] = test system: NCI-H1581 (Non-Small Cell Lung Carcinoma); test: as above
How it was run: as §1

[4] = test system: CAL-29 (Bladder Carcinoma); test: as above
How it was run: as §1

[5] = test system: A3-KAW (B-Cell Non-Hodgkin's Lymphoma); test: as above
How it was run: as §1

[6] = test system: COLO-320-HSR (Colorectal Carcinoma); test: as above
How it was run: as §1

[7] = test system: BICR22 (Oral Cavity Carcinoma); test: as above
How it was run: as §1

[8] = test system: A549 (Lung Adenocarcinoma); test: as above
How it was run: as §1

A498 (Kidney Carcinoma) = test: as above
How it was run: as §1

U-2-OS (Osteosarcoma) = test: as above
How it was run: as §1

[9] = test system: TT (Thyroid Gland Carcinoma); test: as above
How it was run: as §1

[10] = test system: SK-MG-1 (Low Grade Glioma); test: as above
How it was run: as §1

[11] = test system: SK-MES-1 (Squamous Cell Lung Carcinoma); test: as above
How it was run: as §1

NY (Osteosarcoma) = test: as above
How it was run: as §1

PA-1 (Ovarian Carcinoma) = test: as above
How it was run: as §1

[12] = test system: NCI-H1666 (Lung Adenocarcinoma); test: as above
How it was run: as §1

FU97 (Gastric Carcinoma) = test: combination Emax (second highest fraction inhibited in the dose matrix, 72 h); higher = more inhibition; extreme values may be limits of the assay
How it was run: as §1

[13] = test system: HCC1954 (Breast Carcinoma); test: as above
How it was run: as §1

[14] = test system: TT2609-C02 (Thyroid Gland Carcinoma); test: as above
How it was run: as §1
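For Bliss excess, mean over the matrix in this document: after 72 h of two-drug dosing.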

Structure (SMILES) | Bliss excess (CAS-1 (Glioblastoma)) | Bliss excess [1] | Bliss excess [2] | Bliss excess [3] | Bliss excess [4] | Bliss excess [5] | Bliss excess [6] | Bliss excess [7] | Bliss excess [8] | Bliss excess (A498 (Kidney Carcinoma)) | Bliss excess (U-2-OS (Osteosarcoma)) | Bliss excess [9] | Bliss excess [10] | Bliss excess [11] | Bliss excess (NY (Osteosarcoma)) | Bliss excess (PA-1 (Ovarian Carcinoma)) | Bliss excess [12] | combination Emax (FU97 (Gastric Carcinoma)) | combination Emax [13] | combination Emax [14]
Cc1cc2ncnn2cc1Nc1ncc2c(n1)n(C1CCOCC1)c(=O)n2C [AZD7648] + C[C@@H]1COCCN1C2=NC(=NC(=C2)C3(CC3)[S@](=N)(=O)C)C4=C5C=CNC5=NC=C4 [AZD6738] (first compound max 10 µM, 7x7, partner max 10 µM) | 0.0024 | -0.016 | 0.0308 | 0.0217 | -0.012 | -0.034 | -0.0398 | 0.0114 | -0.0282 | 0.0313 | 0.0173 | 0.0666 | 0.0011 | -0.0084 | -0.0052 | -0.0509 | 0.0034 | 0.42 | 0.568 | 0.191
Cc1cc2ncnn2cc1Nc1ncc2c(n1)n(C1CCOCC1)c(=O)n2C [AZD7648] + O=C(c1cc(Cc2n[nH]c(=O)c3ccccc23)ccc1F)N1CCN(C(=O)C2CC2)CC1 [Olaparib] (first compound max 10 µM, 7x7, partner max 10 µM) | -0.0909 | -0.126 | -0.0494 | -0.0319 | -0.0288 | -0.0107 | -0.0169 | -0.0548 | 0.0613 | -0.0268 | -0.0136 | -0.0702 | -0.0455 | -0.0323 | -0.0311 | -0.0072 | -0.0471 | 0.291 | 0.161 | 0.156
NC1(C(=O)N[C@@H](CCO)c2ccc(Cl)cc2)CCN(c2ncnc3[nH]ccc23)CC1 [Capivasertib] + CC(=O)c1c(C)c2cnc(Nc3ccc(N4CCNCC4)cn3)nc2n(C2CCCC2)c1=O [Palbociclib] (first compound max 10 µM, 7x7, partner max 10 µM) | -0.044 | -0.0489 | -0.0223 | 0.0213 | 0.0198 | 0.0548 | -0.0013 | -0.0329 | -0.103 | -0.0294 | 0.0197 | -0.001 | -0.0303 | 0.0137 | -0.0134 | 0.0288 | 0.0086 | 0.358 | 0.74 | 0.376
NC1(C(=O)N[C@@H](CCO)c2ccc(Cl)cc2)CCN(c2ncnc3[nH]ccc23)CC1 [Capivasertib] + CC(C)n1c(=O)n(C)c2cnc3cc(F)c(-c4ccc(OCCCN5CCCCC5)nc4)cc3c21 [AZD1390] (first compound max 10 µM, 7x7, partner max 0.3 µM) | -0.0671 | -0.0564 | -0.0219 | -0.0784 | -0.0702 | 0.0088 | -0.0512 | -0.018 | -0.0678 | -0.0632 | -0.0453 | -0.0945 | -0.111 | -0.0874 | -0.0643 | -0.102 | -0.0285 | 0.361 | 0.752 | 0.167
NC1(C(=O)N[C@@H](CCO)c2ccc(Cl)cc2)CCN(c2ncnc3[nH]ccc23)CC1 [Capivasertib] + CCN(CCO)CCCOc1ccc2c(Nc3cc(CC(=O)Nc4cccc(F)c4)[nH]n3)ncnc2c1 [AZD2811] (first compound max 10 µM, 7x7, partner max 1 µM) | -0.0688 | -0.0461 | 0.0052 | -0.11 | -0.0319 | -0.0369 | -0.0018 | -0.0012 | -0.0365 | -0.0548 | -0.001 | 0.002 | 0.0626 | 0.0121 | -0.0531 | 0.0219 | -0.0482 | 0.369 | 0.87 | 0.542
NC1(C(=O)N[C@@H](CCO)c2ccc(Cl)cc2)CCN(c2ncnc3[nH]ccc23)CC1 [Capivasertib] + COc1nnc2ccc(N3CCC(c4ccc(OCCN5CCN(C)C(=O)[C@H]5C)cc4)CC3)nn12 [AZD5153] (first compound max 10 µM, 7x7, partner max 1 µM) | 0.0268 | -0.0089 | 0.0322 | -0.0303 | 0.0937 | -0.0363 | -0.0289 | 0.024 | -0.0345 | 0.0826 | 0.0156 | 0.0241 | 0.0477 | 0.046 | -0.0649 | -0.0386 | -0.0136 | 0.821 | 0.922 | 0.461
NC1(C(=O)N[C@@H](CCO)c2ccc(Cl)cc2)CCN(c2ncnc3[nH]ccc23)CC1 [Capivasertib] + C[C@@H]1COCCN1C2=NC(=NC(=C2)C3(CC3)[S@](=N)(=O)C)C4=C5C=CNC5=NC=C4 [AZD6738] (first compound max 10 µM, 7x7, partner max 10 µM) | -0.0706 | -0.0213 | -0.0754 | -0.0363 | -0.069 | -0.0165 | -0.0883 | -0.0608 | -0.0414 | 0.0375 | -0.0326 | -0.0378 | -0.034 | -0.058 | -0.0287 | -0.0938 | -0.0332 | 0.482 | 0.859 | 0.364
NC1(C(=O)N[C@@H](CCO)c2ccc(Cl)cc2)CCN(c2ncnc3[nH]ccc23)CC1 [Capivasertib] + Cn1cnc2c(F)c(Nc3ccc(Br)cc3Cl)c(C(=O)NOCCO)cc21 [Selumetinib] (first compound max 10 µM, 7x7, partner max 10 µM) | -0.0798 | -0.0422 | -0.0203 | 0.0371 | -0.0058 | 0.0622 | 0.0222 | 0.114 | 0.0052 | -0.0108 | 0.0009 | -0.0098 | 0.0059 | 0.0571 | -0.0161 | -0.0114 | -0.0165 | 0.397 | 0.805 | 0.542
Cc1nc(Nc2ncc(C(=O)Nc3c(C)cccc3Cl)s2)cc(N2CCN(CCO)CC2)n1 [Dasatinib] + CC(=O)Nc1cccc(-n2c(=O)n(C3CC3)c(=O)c3c(Nc4ccc(I)cc4F)n(C)c(=O)c(C)c32)c1 [Trametinib] (first compound max 2 µM, 7x7, partner max 1 µM) | -0.107 | -0.0295 | -0.0167 | -0.0416 | 0.0133 | 0.0863 | -0.0492 | -0.0037 | 0.0224 | -0.143 | -0.0411 | -0.0272 | -0.0654 | 0.0198 | 0.034 | 0.013 | -0.0644 | 0.422 | 0.279 | 0.748
COc1cccc2c1C(=O)c1c(O)c3c(c(O)c1C2=O)C[C@@](O)(C(=O)CO)C[C@@H]3O[C@H]1C[C@H](N)[C@H](O)[C@H](C)O1 [Doxorubicin] + Cc1cc2ncnn2cc1Nc1ncc2c(n1)n(C1CCOCC1)c(=O)n2C [AZD7648] (first compound max 1 µM, 7x7, partner max 10 µM) | 0.105 | 0.0893 | -0.0002 | 0.0529 | 0.0489 | 0.0751 | 0.0307 | 0.0744 | 0.0564 | 0.0163 | 0.0234 | 0.01 | 0.133 | 0.0477 | 0.0578 | 0.0617 | 0.0129 | 0.59 | 0.729 | 0.414
COc1cc2ncnc(Nc3ccc(F)c(Cl)c3)c2cc1OCCCN1CCOCC1 [Gefitinib] + CC(C)n1c(=O)n(C)c2cnc3cc(F)c(-c4ccc(OCCCN5CCCCC5)nc4)cc3c21 [AZD1390] (first compound max 10 µM, 7x7, partner max 0.3 µM) | -0.0603 | -0.0545 | -0.0477 | -0.0457 | -0.104 | -0.0098 | -0.0398 | -0.013 | -0.0544 | -0.11 | -0.0496 | -0.0526 | -0.078 | -0.0755 | -0.0355 | -0.0949 | -0.0064 | 0.149 | 0.267 | 0.0663
CS(=O)(=O)CCNCc1ccc(-c2ccc3ncnc(Nc4ccc(OCc5cccc(F)c5)c(Cl)c4)c3c2)o1 [Lapatinib] + C[C@@H](Oc1cc(-c2cnn(C3CCNCC3)c2)cnc1N)c1c(Cl)ccc(F)c1Cl [Crizotinib] (first compound max 10 µM, 7x7, partner max 10 µM) | -0.0634 | -0.0024 | 0.0253 | 0.0208 | 0.0215 | 0.0316 | -0.0416 | -0.0388 | -0.0606 | -0.0592 | -0.0263 | -0.002 | -0.0513 | -0.0288 | -0.0118 | 0.0128 | -0.0698 | 0.81 | 0.91 | 0.476
CC(=O)c1c(C)c2cnc(Nc3ccc(N4CCNCC4)cn3)nc2n(C2CCCC2)c1=O [Palbociclib] + CC1(C)CCC(CN2CCN(c3ccc(C(=O)NS(=O)(=O)c4ccc(NCC5CCOCC5)c([N+](=O)[O-])c4)c(Oc4cnc5[nH]ccc5c4)c3)CC2)=C(c2ccc(Cl)cc2)C1 [Venetoclax] (first compound max 10 µM, 7x7, partner max 1 µM) | -0.009 | -0.0186 | -0.051 | -0.029 | -0.0523 | -0.0332 | -0.0625 | -0.0319 | -0.0056 | -0.021 | -0.0275 | 0.0138 | -0.0134 | -0.0114 | -0.0479 | 0.0133 | -0.069 | 0.161 | 0 | 0.275
CC(=O)c1c(C)c2cnc(Nc3ccc(N4CCNCC4)cn3)nc2n(C2CCCC2)c1=O [Palbociclib] + Cc1c2c(nn1C)CSCc1cc(n(C)n1)CSc1cc(c3ccccc3c1)OCCCc1c(C(=O)O)n(C)c3c-2c(Cl)ccc13 [AZD5991] (first compound max 10 µM, 7x7, partner max 1 µM) | 0.0001 | -0.0139 | -0.0409 | -0.0173 | -0.0532 | -0.0158 | -0.0746 | -0.0568 | 0.0338 | -0.0779 | -0.0224 | 0.0684 | -0.0698 | -0.0463 | -0.0358 | 0.0052 | -0.0198 | 0.222 | 0.712 | 0.275
